Measured values published in ChEMBL document CHEMBL4251653, “In vivo potent BM635 analogue with improved drug-like properties” (Eur J Med Chem, 2018).
≈ marks a conversion by molar mass, not a printed value.

Columns and labels:
[1] = tested on: Mycobacterium tuberculosis; assay: microbe, parasite or virus in culture; conditions: 144 h
Description: Antitubercular activity against Mycobacterium tuberculosis after 6 days by resazurin-based fluorescence assay

[2] = Cytotoxicity against human HepG2 cells incubated for 48 hrs by Cell-titer Glo assay; type: cell-based; conditions: read-out: TC50
[3] = Lipophilicity, log D of the compound at pH 7.4 by UV-HPLC method; type: physicochemical; conditions: buffer, read-out: logD
[4] = Permeability of the compound by artificial membrane permeability assay; type: ADME; conditions: PAMPA; read-out: permeability
Albumin = Albumin (Homo sapiens, UniProt P02768); assay: Binding affinity to human serum albumin; type: ADME; conditions: isolated protein
[5] = Kinetic solubility in pH 7.4 phosphate buffered saline incubated for 1 hr by chemiluminescent nitrogen detection method; type: physicochemical; conditions: read-out: Kinetic_solubility
[6] = target: Voltage-gated inwardly rectifying potassium channel KCNH2 (Homo sapiens, UniProt Q12809); assay: Inhibition of human ERG by [3H]dofetilide binding displacement assay
in vitro = conditions: human, HepG2 cells
Description: Selectivity index, ratio of TC50 for human HepG2 cells to MIC for Mycobacterium tuberculosis

[7] = tested on: Mycobacterium tuberculosis; assay: microbe, parasite or virus in culture; conditions: H37Rv, THP-1, 96 h
Description: Antitubercular activity against Mycobacterium tuberculosis H37Rv infected in human THP1 macrophages incubated for 4 days by luciferase reporter gene assay

HepG2 [8] = assay: Cytotoxicity against human HepG2 cells assessed as compound concentration causing changes in nuclear morphology by Cell Health assay; type: cell-based
HepG2 [9] = assay: Cytotoxicity against human HepG2 cells assessed as compound concentration causing changes in membrane permeability by Cell Health assay; type: cell-based
HepG2 [10] = assay: Cytotoxicity against human HepG2 cells assessed as compound concentration causing changes in mitochondrial potential by Cell Health assay; type: cell-based

Albumin, sequence (P02768 whole entry): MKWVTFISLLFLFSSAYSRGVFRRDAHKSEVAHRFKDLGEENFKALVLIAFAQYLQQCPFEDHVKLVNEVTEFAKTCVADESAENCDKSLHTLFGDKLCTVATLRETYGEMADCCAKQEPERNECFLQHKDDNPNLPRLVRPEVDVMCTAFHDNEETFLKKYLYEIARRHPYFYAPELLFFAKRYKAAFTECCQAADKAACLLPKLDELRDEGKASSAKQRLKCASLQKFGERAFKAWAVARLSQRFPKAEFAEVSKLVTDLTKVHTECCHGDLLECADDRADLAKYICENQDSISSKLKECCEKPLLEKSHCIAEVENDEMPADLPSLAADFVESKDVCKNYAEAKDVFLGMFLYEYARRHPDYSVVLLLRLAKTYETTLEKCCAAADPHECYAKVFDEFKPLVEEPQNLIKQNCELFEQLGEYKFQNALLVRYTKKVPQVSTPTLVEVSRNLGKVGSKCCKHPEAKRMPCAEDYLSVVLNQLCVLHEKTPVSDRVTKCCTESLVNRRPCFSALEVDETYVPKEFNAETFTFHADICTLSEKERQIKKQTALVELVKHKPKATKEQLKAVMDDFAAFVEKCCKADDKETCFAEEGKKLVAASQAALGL
Voltage-gated inwardly rectifying potassium channel KCNH2, sequence (Q12809 whole entry): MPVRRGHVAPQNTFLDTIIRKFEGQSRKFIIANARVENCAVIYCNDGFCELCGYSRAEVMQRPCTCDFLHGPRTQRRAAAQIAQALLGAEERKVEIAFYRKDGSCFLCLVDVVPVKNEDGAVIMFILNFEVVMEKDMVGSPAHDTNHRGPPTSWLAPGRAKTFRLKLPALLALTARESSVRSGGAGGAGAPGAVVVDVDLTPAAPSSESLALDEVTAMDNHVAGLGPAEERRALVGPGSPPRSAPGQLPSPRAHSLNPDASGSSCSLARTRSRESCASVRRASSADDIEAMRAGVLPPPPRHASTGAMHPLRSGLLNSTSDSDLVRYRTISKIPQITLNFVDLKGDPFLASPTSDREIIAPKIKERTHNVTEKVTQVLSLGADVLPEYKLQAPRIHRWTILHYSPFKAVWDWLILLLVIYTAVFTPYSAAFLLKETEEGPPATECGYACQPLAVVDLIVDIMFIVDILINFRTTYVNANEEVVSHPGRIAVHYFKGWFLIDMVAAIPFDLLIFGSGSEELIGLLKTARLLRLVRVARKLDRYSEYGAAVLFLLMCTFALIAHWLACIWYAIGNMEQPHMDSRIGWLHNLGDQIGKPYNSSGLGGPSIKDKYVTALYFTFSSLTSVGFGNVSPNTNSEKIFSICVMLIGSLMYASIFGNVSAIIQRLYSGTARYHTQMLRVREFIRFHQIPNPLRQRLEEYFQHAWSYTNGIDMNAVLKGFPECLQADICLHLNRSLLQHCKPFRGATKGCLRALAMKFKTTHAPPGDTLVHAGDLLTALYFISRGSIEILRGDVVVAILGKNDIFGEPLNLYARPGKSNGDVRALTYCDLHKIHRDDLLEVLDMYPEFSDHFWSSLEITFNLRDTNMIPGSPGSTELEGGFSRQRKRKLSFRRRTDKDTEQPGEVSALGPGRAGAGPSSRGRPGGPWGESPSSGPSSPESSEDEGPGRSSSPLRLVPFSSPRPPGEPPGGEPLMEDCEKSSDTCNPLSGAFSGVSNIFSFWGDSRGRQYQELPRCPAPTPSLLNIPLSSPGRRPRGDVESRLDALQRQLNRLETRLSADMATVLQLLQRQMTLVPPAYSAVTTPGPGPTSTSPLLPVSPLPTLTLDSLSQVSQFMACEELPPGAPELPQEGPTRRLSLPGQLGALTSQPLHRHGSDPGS

| SMILES | MIC [1] [µM] | CC50 at 48 h [2] [µM] | IC50 [7] [µM] | also measured |
| --- | --- | --- | --- | --- |
| COc1ccc(-c2cc(CN3CCOCC3)c(C)n2C(C)C)cc1 | 2.5 (≈ 0.821 µg/mL) |  |  |  |
| Cc1c(CN2CCOCC2)cc(-c2ccc(C(C)C)cc2)n1C1CCCC(O)C1 (configuration not stated) | > 40 | 20 |  |  |
| Cc1c(CN2CCOCC2)cc(-c2ccc(C(C)C)cc2)n1Cc1ccc(F)cc1 | 0.08 (≈ 0.0325 µg/mL) | 20 | 0.16 | logD [3]: 8.2; Papp [4]: 30 ×10⁻⁶ cm/s; Activity (Albumin): 98.47%; solubility kinetic at 1 h [5]: 11 µM (≈ 4.47 µg/mL); IC50 [6]: 5 µM; selectivity ratio (in vitro): 250 |
| Cc1c(CN2CCOCC2)cc(-c2ccc(C(F)(F)F)cc2)n1C1CCC1 | 1.25 (≈ 0.473 µg/mL) | 20 |  | selectivity ratio (in vitro): 67 |
| Cc1[nH]c(-c2ccc(C(C)C)cc2)cc1CN1CCOCC1 | 12.5 (≈ 3.73 µg/mL) | 1.6 | > 10 |  |
| Cc1c(CN2CCOCC2)cc(-c2ccc(C(C)C)cc2)n1CC(C)(C)O | 2.5 (≈ 0.926 µg/mL) | 40 | 2.5 | Activity (HepG2 [8]): 50 µM; Activity (HepG2 [9]): 100 µM; Activity (HepG2 [10]): 126 µM |
| COCCCn1c(-c2ccc(C(C)C)cc2)cc(CN2CCOCC2)c1C | 1.3 (≈ 0.482 µg/mL) |  | 1.25 | Activity (HepG2 [8]): 32 µM; Activity (HepG2 [9]): 40 µM; Activity (HepG2 [10]): 50 µM |
| CC(=O)Nc1ccc(-c2cc(CN3CCOCC3)c(C)n2-c2ccc(F)cc2)cc1 | 1.25 (≈ 0.509 µg/mL) | 80 | 3.3 | selectivity ratio (in vitro): 40 |
| Cc1c(CN2CCOCC2)cc(-c2ccc(C(C)C)cc2)n1CC(C)C | 0.2 (≈ 0.0709 µg/mL) | 20 | 0.08 | logD [3]: 8.46; Papp [4]: 43 ×10⁻⁶ cm/s; Activity (Albumin): 97.12%; solubility kinetic at 1 h [5]: 47 µM (≈ 16.7 µg/mL); IC50 [6]: 16 µM; selectivity ratio (in vitro): 100 |
| Cc1c(CN2CCOCC2)cc(-c2ccc(C(C)C)cc2)n1CCCC(=O)O | > 40 | > 100 |  |  |
| Cc1c(CN2CCOCC2)cc(-c2ccc(C(C)C)cc2)n1-c1ccc(C(=O)O)cc1 | > 40 | > 100 |  |  |
| Cc1c(CN2CCOCC2)cc(Cc2ccccc2)n1-c1ccc(F)cc1 | > 5 | 10 |  |  |
| Cc1cc(CN2CCOCC2)c(C)n1-c1ccc(F)cc1 | > 5 | > 100 | > 10 |  |
| Cc1c(CN2CCOCC2)cc(-c2ccc(C(C)C)cc2)n1[C@@H]1CCCNC1 | > 80 | 16 |  |  |
| Cc1c(CN2CCOCC2)cc(-c2ccc(C(C)C)cc2)n1CC1CCCO1 (configuration not stated) | 5 (≈ 1.91 µg/mL) | 32 | 5 | Activity (HepG2 [8]): 40 µM; Activity (HepG2 [9]): 50 µM; Activity (HepG2 [10]): 63 µM |
| Cc1c(CN2CCOCC2)cc(-c2ccc(C(C)C)cc2)n1C | 1.25 (≈ 0.391 µg/mL) | 16 | 1.25 | Activity (HepG2 [8]): 40 µM; Activity (HepG2 [9]): 40 µM; Activity (HepG2 [10]): 50 µM; selectivity ratio (in vitro): 13 |
| Cc1c(CN2CCOCC2)cc(-c2ccc(C(C)C)cc2)n1C1CCOCC1 | 2.5 (≈ 0.956 µg/mL) | 50.1 |  |  |
| Cc1cc(Cl)ccc1-c1cc(CN2CCOCC2)c(C)n1-c1ccc(F)cc1 | 5 (≈ 1.99 µg/mL) | > 100 | > 10 | Activity (HepG2 [8]): > 200 µM; Activity (HepG2 [9]): > 200 µM; Activity (HepG2 [10]): > 200 µM |
| Cc1c(CN2CCOCC2)cc(-c2ccc(Cl)cn2)n1-c1ccc(F)cc1 | > 125 | > 100 | > 10 | Activity (HepG2 [8]): > 200 µM; Activity (HepG2 [9]): > 200 µM; Activity (HepG2 [10]): > 200 µM |
| Cc1c(CN2CCOCC2)cc(-c2ccc(Cl)cc2)n1C(C)C | 2.5 (≈ 0.832 µg/mL) |  |  |  |

| SMILES | MIC [1] [µM] | CC50 at 48 h [2] [µM] | IC50 [7] [µM] | also measured |
| --- | --- | --- | --- | --- |
| Cc1c(CN2CCOCC2)cc(-c2ccc(C(C)C)cc2)n1C1CCN(C)CC1 | > 5 | 20 | > 10 |  |
| Cc1c(CN2CCOCC2)cc(-c2ccc(C(F)(F)F)cc2)n1C1CCCCC1 | 1.25 (≈ 0.508 µg/mL) | > 100 |  | selectivity ratio (in vitro): > 167 |
| COCCn1c(-c2ccc(C(C)C)cc2)cc(CN2CCOCC2)c1C | 1.3 (≈ 0.463 µg/mL) | 50.1 | 1.32 | selectivity ratio (in vitro): 39 |
| Cc1c(CN2CCOCC2)cc(-c2ccc(Cl)nc2)n1-c1ccc(F)cc1 | > 5 | 80 | > 10 |  |
| Cc1c(CN2CCOCC2)cc(-c2ccc(C(C)C)cc2)n1-c1cccc(C(=O)O)c1 | 40 (≈ 16.7 µg/mL) | > 100 |  |  |
| Cc1c(CN2CCOCC2)cc(-c2ccc(C(C)C)cc2)n1C1COC1 | 2.5 (≈ 0.886 µg/mL) | 80 | 2.5 | Activity (HepG2 [8]): 80 µM; Activity (HepG2 [9]): 80 µM; Activity (HepG2 [10]): 100 µM |
| Cc1c(CN2CCOCC2)cc(-c2ccc(C(C)C)cc2)n1-c1ccc(F)cn1 | 0.6 (≈ 0.236 µg/mL) | 20 | 0.6 | Activity (HepG2 [8]): 50 µM; Activity (HepG2 [9]): 63 µM; Activity (HepG2 [10]): 80 µM; logD [3]: 6.85; Papp [4]: 64 ×10⁻⁶ cm/s; Activity (Albumin): 94.13%; solubility kinetic at 1 h [5]: 276 µM (≈ 109 µg/mL); IC50 [6]: 8 µM; selectivity ratio (in vitro): 33 |
| Cc1c(CN2CCOCC2)cc(-c2ccc(C(C)C)cc2)n1-c1ncccn1 | 40 (≈ 15.1 µg/mL) | > 100 |  |  |
| Cc1c(CN2CCOCC2)cc(-c2ccc(C(C)C)cc2)n1CCC(=O)O | > 40 | > 100 |  |  |
| Cc1c(CN2CCOCC2)cc(-c2ccc(C(C)C)cc2)n1C1CCC1 | 0.08 (≈ 0.0282 µg/mL) | 20 | 0.08 | Activity (HepG2 [8]): 25 µM; Activity (HepG2 [9]): 25 µM; Activity (HepG2 [10]): 32 µM; logD [3]: 8.13; Papp [4]: 55 ×10⁻⁶ cm/s; Activity (Albumin): 98.12%; solubility kinetic at 1 h [5]: 71 µM (≈ 25 µg/mL); IC50 [6]: 8 µM; selectivity ratio (in vitro): 250 |
| Cc1c(CN2CCOCC2)cc(-c2ccc(C(C)C)cc2)n1-c1ccc(N(C)C)cc1 | 1.25 (≈ 0.522 µg/mL) | 16 | 2.5 | selectivity ratio (in vitro): 13 |
| Cc1c(CN2CCOCC2)cc(-c2ccc(C(C)C)cc2)n1[C@@H]1CCCN(C)C1 | > 40 | 25 |  |  |
| Cc1c(CN2CCOCC2)cc(-c2ccc(C(C)C)cc2)n1CC1CCOCC1 | > 5 | > 100 | 5.28 |  |
| Cc1c(CN2CCOCC2)cc(-c2ccc(C(F)(F)F)cc2)n1-c1ccc(F)cc1 | 0.6 (≈ 0.251 µg/mL) | > 100 |  | logD [3]: 7.67; Papp [4]: 15 ×10⁻⁶ cm/s; Activity (Albumin): 98.33%; solubility kinetic at 1 h [5]: < 1 µM; IC50 [6]: > 50 µM; selectivity ratio (in vitro): 167 |
| Cc1c(CN2CCOCC2)cc(C2CCCCC2)n1-c1ccc(F)cc1 | > 5 | 50 | > 10 |  |
| Cc1c(CN2CCOCC2)cc(-c2ccc(C(F)(F)F)cc2)n1C(C)C | 2.5 (≈ 0.916 µg/mL) | 20 |  |  |
| Cc1c(CN2CCOCC2)cc(-c2ccc(C(C)C)cc2)n1C1CCN(C(=O)OC(C)(C)C)CC1 | > 5 |  | > 10 |  |
| Cc1c(CN2CCOCC2)cc(-c2ccc(C(C)C)cc2)n1C1CCCN(C(=O)OC(C)(C)C)C1 (single isomer, unassigned) | 30 (≈ 14.5 µg/mL) | 16 |  |  |
| NNC(=O)c1ccncc1 [ISONIAZID] | 1.8 (≈ 0.247 µg/mL) |  |  |  |
